Experimental data: patent US8722720B2, “Imidazole derivatives as IDO inhibitors” (NewLink Genetics Corporation, priority 2010, dated 2014)
Structures can show the parent of a compound that is named as a salt. Where two headings read alike, the source gives them in different places.

Target: T1, purified human IDO protein (Homo sapiens, UniProt P14902)
T1 construct: 2 extra amino acids (linker from the BglII cloning site of pQE70); made in house; host or cells: E. coli M15(pREP4) with plasmid pQE70-hIDO
Experiment: Enzymatic IDO assay (kynurenine production, absorbance at 480 nm)
Assay type: biochemical
Details: values reported in ranges
Protocol: The inhibitors were initially diluted in DMSO at 100 mM and were diluted in potassium phosphate 50 mM, added to the reaction mixture at final concentrations raging from 1 mM to 5 nM and preincubated with the enzyme for 5 min at 25° C. The reaction was started by addition of L-tryptophan to 200 μM and incubated 15 min at 37° C. The reaction was stopped by addition of 0.5 vol of 30% trichloroacetic acid and incubated 30 min at 60° C. to hydrolyze N-formylkynurenine to kynurenine. The reaction was centrifuged at 3400 g for 5 min to remove precipitated protein and the supernatant was reacted with 2% (w/v) of p-dimethylaminobenzaldehyde in acetic acid. The reaction was incubated 10 min at 25° C. and read at 480 nm in a spectrophotometer. […] Nonlinear regressions and determination of the IC50 values were performed using the GraphPad Prism 4 software.

[1] = recombinant human IDO, read-out: hIDO IC50
[2] = hIDO IC50, recombinant human IDO

T1 sequence (P14902 whole entry P110S/E119G): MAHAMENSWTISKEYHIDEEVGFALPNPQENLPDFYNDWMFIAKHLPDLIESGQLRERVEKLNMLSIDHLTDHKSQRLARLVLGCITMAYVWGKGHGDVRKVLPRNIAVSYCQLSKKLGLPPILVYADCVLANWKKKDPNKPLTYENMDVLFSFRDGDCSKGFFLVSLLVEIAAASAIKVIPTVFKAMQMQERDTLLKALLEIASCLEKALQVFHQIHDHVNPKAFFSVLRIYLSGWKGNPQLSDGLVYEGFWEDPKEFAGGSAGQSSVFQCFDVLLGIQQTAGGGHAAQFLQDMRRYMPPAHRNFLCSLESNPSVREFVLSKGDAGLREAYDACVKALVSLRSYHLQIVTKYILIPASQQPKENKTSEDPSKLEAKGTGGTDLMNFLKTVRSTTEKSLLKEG

Row | Structure (SMILES) | IC50 [1] [µM] | IC50 [2] [µM]
1 | Clc1ccccc1CCOc1ccc(Br)cc1-c1c[nH]cn1 [compound 1021, 4-(5-bromo-2-(2-chlorophenethoxy)phenyl)-1H-imidazole] | 10 to 100 | 
2 | Fc1ccc(COc2ccccc2-c2c[nH]cn2)cc1 [compound 1022, 4-(2-(4-fluorobenzyloxy)phenyl)-1H-imidazole] | 10 to 100 | 
3 | FC(F)(F)c1ccc(COc2ccccc2-c2c[nH]cn2)cc1 [compound 1023, 4-(2-(4-(trifluoromethyl)benzyloxy)phenyl)-1H-imidazole] | > 100 | 
4 | CC(Oc1ccccc1-c1c[nH]cn1)c1ccc(Cl)cc1 (centres unmarked) [compound 1024, 4-(2-(1-(4-chlorophenyl)ethoxy)phenyl)-1H-imidazole] | 10 to 100 | 
5 | c1ccc2oc(-c3c[nH]cn3)cc2c1 [compound 1026, 4-(benzofuran-2-yl)-1H-imidazole] | > 100 | 
6 | c1ccc(-c2c[nH]cn2)c(OCc2ccc3c(c2)OCO3)c1 [compound 1027, 4-(2-(benzo[d][1,3]dioxol-5-ylmethoxy)phen-yl)-1H-imidazole] | 10 to 100 | 
7 | c1ccc(-c2c[nH]cn2)c(OCc2ccc3occc3c2)c1 [compound 1028, 4-(2-(benzofuran-5-ylmethoxy)phenyl)-1H-imidazole] | 10 to 100 | 
8 | CCOC(=O)c1ccc(COc2ccccc2-c2c[nH]cn2)cc1 [compound 1029, ethyl 4-((2-(1H-imidazol-4-yl)phenoxy)methyl) benzoate] | 10 to 100 | 
9 | C=C(COc1ccccc1-c1c[nH]cn1)c1coc2ccccc12 [compound 1030, 4-(2-(2-(benzofuran-3-yl)allyloxy)phenyl)-1H-imidazole] | 1 to 10 | 
10 | CC(COc1ccccc1-c1c[nH]cn1)c1coc2ccccc12 (centres unmarked) [compound 1031, 4-(2-(2-(benzofuran-3-yl)propoxy)phenyl)-1H-imidazole] | 1 to 10 | 
11 | O=C(O)c1ccc(COc2ccccc2-c2c[nH]cn2)cc1 [compound 1032, lithium 4-((2-(1H-imidazol-4-yl)phenoxy)methyl) benzoate] | 10 to 100 | 
12 | CN(C)C(=O)Oc1ccc(Br)cc1-c1c[nH]cn1 [compound 1035, 4-bromo-2-(1H-imidazol-4-yl)phenyl dimethylcarbamate] |  | > 100
13 | CCOC(=O)Oc1ccc(Br)cc1-c1cn(C(=O)OCC)cn1 [compound 1036, ethyl 4-(5-bromo-2-(ethoxycarbonyloxy)phenyl)-1H-imidazole-1-carboxylate] | 10 to 100 | 
14 | Fc1ccc(-c2cnc[nH]2)cc1Cl [compound 1037, 5-(3-chloro-4-fluorophenyl)-1H-imidazole] | 10 to 100 | 
15 | Oc1ccc(Cl)cc1-c1cnc2cnccn12 [compound 1038, 4-chloro-2-(imidazo[1,2-a]pyrazin-3-yl)phenol] | > 100 | 
16 | FC(F)(F)c1ccccc1CCOc1ccccc1-c1c[nH]cn1 [compound 1040, 4-(2-(2-(trifluoromethyl)phenethoxy)phenyl)-1H-imidazole] | 1 to 10 | 
17 | CC(Cc1ccccc1Cl)Oc1ccccc1-c1c[nH]cn1 (centres unmarked) [compound 1043, 4-(2-(1-(2-chlorophenyl)propan-2-yloxy)phen-yl)-1H-imidazole] | 1 to 10 | 
18 | CC(CC1CCCCC1)Oc1ccccc1-c1c[nH]cn1 (centres unmarked) [compound 1044, 4-(2-(1-cyclohexylpropan-2-yloxy)phenyl)-1H-imidazole] | 10 to 100 | 
19 | CC(Oc1ccccc1-c1c[nH]cn1)c1ccccc1 (centres unmarked) [compound 1045, 4-(2-(1-phenylethoxy)phenyl)-1H-imidazole] | 10 to 100 | 
20 | CC(C)(C)OC(=O)Nc1ccc(CCOc2ccccc2-c2c[nH]cn2)cc1 [compound 1046, tert-butyl 4-(2-(2-(1H-imidazol-4-yl)phenoxy)ethyl)phenylcarbamate] | 1 to 10 | 
21 | CCOC(=O)n1cnc(-c2ccccc2)c1 [compound 1047, ethyl 4-phenyl-1H-imidazole-1-carboxylate] | > 100 | 
22 | Oc1c(-c2cnc[nH]2)[nH]c2ccccc12 [compound 1048, 2-(1H-imidazol-5-yl)-1H-indol-3-ol] | > 100 | 
23 | NC(CCc1ccccc1-c1c[nH]cn1)C(=O)O (centres unmarked) [compound 1050, lithium 4-(2-(1H-imidazol-4-yl)phenyl)-2-amino-butanoate] | > 100 | 
24 | COc1cc(F)c(Cl)cc1-c1cnc[nH]1 [compound 1051, 5-(5-chloro-4-fluoro-2-methoxyphenyl)-1H-imidazole] | > 100 | 
25 | CC(COc1ccccc1-c1c[nH]cn1)C1CCCCC1 (centres unmarked) [compound 1052, 4-(2-(2-cyclohexylpropoxy)phenyl)-1H-imidazole hydrochloride] | 1 to 10 | 
26 | Clc1ccc(OCc2ccccc2)c(-c2cncn2C2CCCCC2)c1 [compound 1060, 5-(2-(benzyloxy)-5-chlorophenyl)-1-cyclo-hexyl-1H-imidazole] | > 100 | 
27 | CN(C)C(=O)Oc1ccc(Cl)cc1-c1c[nH]cn1 [compound 1076, 4-chloro-2-(1H-imidazol-4-yl)phenyl dimethylcarbamate] |  | > 100

Row | Structure (SMILES) | IC50 [1] [µM] | IC50 [2] [µM]
28 | Nc1ccc(CCOc2ccccc2-c2c[nH]cn2)cc1 [compound 1078, 4-(2-(2-(1H-imidazol-4-yl)phenoxy)ethyl) aniline] | 1 to 10 | 
29 | O=C(O)CCSc1nc(-c2ccccc2)c(-c2ccccc2)[nH]1 [compound 1079, 3-(4,5-diphenyl-1H-imidazol-2-ylthio)propanoic acid] | > 100 | 
30 | CC(C)N(C(=O)Oc1ccc(Cl)cc1-c1c[nH]cn1)C(C)C [compound 1085, 4-chloro-2-(1H-imidazol-4-yl)phenyl diisopropylcarbamate] | > 100 | 
31 | Oc1c(Cl)cc(Cl)c(OCCC2CCCCC2)c1-c1cnc[nH]1 [compound 1086, 4,6-dichloro-3-(2-cyclohexylethoxy)-2-(1H-imidazol-5-yl)phenol] |  | > 100
32 | O=C(Oc1ccc(Cl)cc1-c1c[nH]cn1)N1CCCC1 [compound 1087, 4-chloro-2-(1H-imidazol-4-yl)phenyl pyrrolidine-1-carboxylate] | > 100 | 
33 | CN(C(=O)Oc1ccc(Cl)cc1-c1c[nH]cn1)c1ccccc1 [compound 1088, 4-chloro-2-(1H-imidazol-4-yl)phenyl methyl(phenyl)carbamate] |  | > 100
34 | CC(C)(C)C(=O)Nc1ccc(CCOc2ccccc2-c2c[nH]cn2)cc1 [compound 1101, N-(4-(2-(2-(1H-imidazol-4-yl)phenoxy)ethyl)phenyl)pivalamide] | 1 to 10 | 
35 | O=C(Cc1ccccc1)Nc1ccc(CCOc2ccccc2-c2cnc[nH]2)cc1 [compound 1102, N-(4-(2-(2-(1H-imidazol-4-yl)phenoxy)ethyl)phenyl)-2-phenylacetamide] | < 1 | 
36 | CC(C)(C)CC(=O)Nc1ccc(CCOc2ccccc2-c2c[nH]cn2)cc1 [compound 1103, N-(4-(2-(2-(1H-imidazol-4-yl)phenoxy)ethyl)phenyl)-3,3-dimethylbutanamide] | 1 to 10 | 
37 | CCOC(=O)Nc1ccc(CCOc2ccccc2-c2c[nH]cn2)cc1 [compound 1104, ethyl 4-(2-(2-(1H-imidazol-4-yl)phenoxy)ethyl)phenylcarbamate] | 1 to 10 | 
38 | Oc1ccc(OCc2ccccc2)cc1-c1cnc[nH]1 [compound 1105, 4-(benzyloxy)-2-(1H-imidazol-5-yl)phenol] | 10 to 100 | 
39 | Fc1ccccc1CCOc1ccccc1-c1cnc[nH]1 [compound 1106, 5-(2-(2-fluorophenethoxy)phenyl)-1H-imidazole] | 1 to 10 | 
40 | CC(C)(C)CCOc1ccc(O)c(-c2cnc[nH]2)c1 [compound 1107, 4-(3,3-dimethylbutoxy)-2-(1H-imidazol-5-yl) phenol] | 10 to 100 | 
41 | c1ccc(-c2cncn2-c2ccccc2)cc1 [compound 1108, 1,5-diphenyl-1H-imidazole] | 10 to 100 | 
42 | CC(COc1ccccc1-c1c[nH]cn1)c1ccccc1Cl (centres unmarked) [compound 1109, 4-(2-(2-(2-chlorophenyl)propoxy)phenyl)-1H-imidazole] | 10 to 100 | 
43 | CC(C)(C)CCOc1ccc(O)cc1-c1c[nH]cn1 [compound 1110, 4-(3,3-dimethylbutoxy)-3-(1H-imidazol-4-yl) phenol] | 10 to 100 | 
44 | Oc1c(Cl)cc(Cl)c(OCCc2ccccc2Cl)c1-c1cnc[nH]1 [compound 1111, 4,6-dichloro-3-(2-chlorophenethoxy)-2-(1H-imidazol-5-yl)phenol] | 10 to 100 | 
45 | CN1CCN(C(=O)Oc2ccc(Cl)cc2-c2c[nH]cn2)CC1 [compound 1112, 4-chloro-2-(1H-imidazol-4-yl)phenyl 4-methylpiperazine-1-carboxylate] |  | 10 to 100
46 | c1ccc2c(c1)NCn1cncc1-2 [compound 1114, 5,6-dihydroimidazo[1,5-c]quinazoline] | > 100 | 
47 | Nn1cncc1-c1ccccc1 [compound 1115, 5-phenyl-1H-imidazol-1-amine] | > 100 | 
48 | Ic1ccccc1-c1cnc[nH]1 [compound 1119, 5-(2-iodophenyl)-1H-imidazole] | 10 to 100 | 
49 | Oc1cc(F)ccc1-c1cnc[nH]1 [compound 1120, 5-fluoro-2-(1H-imidazol-5-yl)phenol] | 10 to 100 | 
50 | CC(=O)Nc1ccccc1-c1c[nH]cn1 [compound 1121, N-(2-(1H-imidazol-4-yl)phenyl)acetamide] | > 100 | 
51 | Oc1ccc(Cl)cc1-c1cncn1-c1cccnc1 [compound 1122, 4-chloro-2-(1-(pyridin-3-yl)-1H-imidazol-5-yl)phenol] | 10 to 100 | 
52 | Oc1c(-c2cnc[nH]2)ccc(F)c1Cl [compound 1129, 2-chloro-3-fluoro-6-(1H-imidazol-5-yl)phenol] | 10 to 100 | 
53 | Oc1cc(F)c(Cl)cc1-c1cnc[nH]1 [compound 1130, 4-chloro-5-fluoro-2-(1H-imidazol-5-yl)phenol] | 1 to 10 | 
